In one experiment the test system is YAC128 mice. As to the kind of experiment: EM of striatal mitophagosomes. Type of experiment: in vivo, mouse. The following applies: YAC128, 3 mg kg^−1 per day, age 3–9 months, per 100 μm^2. From the text:
The HdhQ7 and HdhQ111 cells were fixed by 2.5% glutaraldehyde in 0.1 M cacodylate buffer. Small pieces of the striata tissue of mice were fixed by immersion in triple aldehyde-DMSO. After rinsing in 0.1 M phosphate buffer (pH 7.3), the samples were post-fixed in ferrocyanide-reduced osmium tetroxide.
The above fixed samples were rinsed by water followed by overnight soaking in acidified uranyl acetate. After rinsing in distilled water, the blocks were dehydrated in ascending concentrations of ethanol, passed through propylene oxide, and embedded in Poly/Bed resin. Thin sections were sequentially stained with acidified uranyl acetate followed by a modification of Sato's triple lead stain. These sections were examined in a FEI Tecnai Spirit (T12) transmission electron microscope with a Gatan US4000 4kx4k CCD at the Case Western Reserve University EM core facility. Mitochondria from 15 random areas in each group were imaged by an experimenter blind to the experimental groups. The length of mitochondria was measured by NIH Image J software. The number of mitophagosomes per 100 μm^2 was counted. The number of gold particles labelling VCP on mitochondria were quantitated.
YAC128 mice (Tg) and their age-matched wt littermates were implanted with an osmotic pump containing TAT control peptide or HV-3 peptide (3 mg/kg/day, each) starting from the age of 3 months. […]

In experiment [1] the test system is HD patient-iPS cell derived neurons. As to the kind of experiment: LDH release after BDNF withdrawal. Particulars: 1 μM per day for 5 days, BDNF withdrawal 24 h. Type of experiment: cell-based, human. On the procedure: Figure 4 HV-3 treatment reduces mitochondrial damage and cell death in HD cell cultures. Mouse HdhQ7 and HdhQ111 striatal cells were treated with control peptide TAT or peptide HV-3 (3 uM/day for 3 days). (a) Left panel: Mitochondrial membrane potential (MMP) was determined by TMRM fluorescent dye. Right panel: HdhQ111 cells were transfected with control siRNA (siCon) and VCP siRNA (siVCP) for three days. The MMP was determined by TMRM in HdhQ111 cells treated with TAT or HV-3. (b) Mitochondrial morphology was determined by staining cells with anti-Tom20 antibody. Scale bar: 10 μm. The percentage of cells with fragmented mitochondria relative to the total number of cells was quantitated. At least 100 cells per group were counted. (c) Mitochondrial morphology was determined by EM. The length of mitochondria and the number of mitophagosomes were quantitated. At least 90 mitochondria per group were counted. […] HMGB1 release into culture medium was determined by IB analysis with anti-HMGB1 antibody. […] Cell death was determined by the release of LDH. […] (g) Quantitation of neurite length of medium spiny neurons. At least 50 neurons per group were counted by an observer blind to experimental conditions. (h) Left: the MMP was determined by TMRM fluorescent dye. […] Mitochondrial length along neurites of DARPP32/Tuj1-positive neurons was quantitated. […]

Experiment [2] has the same test system. As to the kind of experiment: Mitochondrial length along neurites. Type of experiment: cell-based, human. Particulars: 1 μM per day for 5 days. On the procedure:
iPS cells from a normal subject and a HD patient (carrying 41 CAG repeats) were differentiated into neurons using the protocol from our previous studies. Briefly, iPS cells were plated onto 6-well plates precoated with 2.5% Matrigel and allowed to reach 90% confluence in feeder-free medium. For the first 10 days, cells were treated with SB431542 (10 μM; Tocris Bioscience) and Noggin (100 ng/ml) in Neural Media (NM) containing Neurobasal and DMEM (1:1), B27 supplement minus vitamin A (50 × , Invitrogen), N2 supplement (100 × , Invitrogen), GlutaMax (Invitrogen, 100 × ), FGF2 ([…]) and EGF ([…]), 100 units per ml penicillin and 100 μg ml^−1 streptomycin). For the next 10 days, cells were treated with human recombinant Sonic hedgehog (SHH, 200 ng/ml), DKK1 (100 ng/ml) and BDNF (20 ng/ml) and 10 μM Y27632 (Sigma) in neuronal differentiation medium containing Neurobasal and DMEM (1:3), B27, N2, GlutaMax and PS. […]
In patient-iPS cell-derived neurons, to ensure the observation of mitochondria in the medium spiny neurons, the cells were stained with a mitochondrial marker (anti-TOM20, 1:500) and markers for medium spiny neurons (DARPP-32, 1:200, Epitomics). The quantitation of neurite length was conducted only in the neurons immunopositive for both DARPP-32 and Tuj1 (neuron-specific class III beta-tubulin, 1:5,000, Covance). At least 50 neurons/group were counted.

Another experiment has as its system R6/2 mice. The experiment is described as follows: Body weight and survival, R6/2. Type of experiment: in vivo, mouse. The following applies: R6/2, 5–13 weeks of age, 3 mg kg^−1 per day, n=15. On the procedure: Male hemizygous R6/2 mice (Tg) and their age-matched wt littermates (5-week-old) were implanted with a 28-day osmotic pump (Alzet, Cupertino CA) containing TAT control peptide or HV-3 peptide, which delivered peptides to the mice at a rate of 3 mg kg^−1 per day. The first pump was implanted subcutaneously in the back of 5-week-old mice between the shoulders and replaced once, after 4 weeks.
The body weight and survival rate of HD mice and wt littermates were recorded throughout the study period.

`CSCC[C@H](NC(=O)[C@@H](NC(=O)[C@H](CC(C)C)NC(=O)[C@@H](NC(=O)[C@H](Cc1c[nH]cn1)NC(=O)CCCCCNC(=O)[C@H](CCCNC(=N)N)NC(=O)[C@H](CCCNC(=N)N)NC(=O)[C@H](CCCNC(=N)N)NC(=O)[C@H](CCC(N)=O)NC(=O)[C@H](CCCNC(=N)N)NC(=O)[C@H](CCCNC(=N)N)NC(=O)[C@H](CCCCN)NC(=O)[C@H](CCCCN)NC(=O)[C@H](CCCNC(=N)N)NC(=O)CNC(=O)[C@@H](N)Cc1ccc(O)cc1)C(C)C)C(C)C)C(=O)N[C@@H](CS)C(=O)N[C@@H](C)C(=O)N[C@H](C(N)=O)[C@@H](C)O` [HV-3]: in the experiment on YAC128 mice, the “number of mitophagosomes in striatum” value is recorded as “reduced by HV-3 treatment”. For the same compound, in experiment [1], the neuronal cell death entry is “suppressed neuronal cell death”. Besides, the “mitochondrial length along neurites” value in experiment [2] was “improved MMP and mitochondrial length along neurites”. In the experiment with R6/2 mice, the body weight entry is on record as “increased body weight”; the survival rate result is “increased body weight and survival rate”.

(Values after article PMC5007466, “VCP recruitment to mitochondria causes mitophagy impairment and neurodegeneration in models of Huntington's disease” (Nature Communications, 2016).)
